Literature values, collected in patent publication US20070231358A1, “INTRAVAGINAL TREATMENT OF VAGINAL INFECTIONS WITH METRONIDAZOLE COMPOSITIONS” (Tolmar, Inc., priority 2004, published 2007).
Read-outs that look alike come from different tables or passages of the source.

Experiments:
bacterial vaginosis [1] = details: oral route; 400 to 500 mg twice daily for three to seven days or 2 grams single dose
bacterial vaginosis [2] = details: for Cured patients out of 19: four weeks after initiation; for Cure rate (%): four weeks after initiation of therapy
[3] = after a single oral dose of 2 grams
[4] = oral 400 mg morning and evening for seven days
[5] = vaginal insert 500 mg every evening for seven days

- Concentration of metronidazole in the vaginal fluid [3]: low concentration
Compound: Cc1ncc([N+](=O)[O-])n1CCO [metronidazole, 1-(2-hydroxyethyl)-2-methyl-5-nitroimidazole]
- Cure rates (bacterial vaginosis [1]): 80-90%
- Side effects (bacterial vaginosis [2]; intravaginal use as the 500 mg insert): No side effects were reported
- Cured patients out of 19 (bacterial vaginosis [2]; [4]): 14
- Cure rate (%) (bacterial vaginosis [2]; [4]): 74%
- Cured patients out of 19 (bacterial vaginosis [2]; [5]): 15
- Cure rate (%) (bacterial vaginosis [2]; [5]): 79%
- Lactate-producing microorganisms (Lactobacilli and aerobic Streptococci) after treatment (bacterial vaginosis [2]; vaginal versus oral treatment): found more frequently after vaginal than after oral treatment
